From patent publication US8314143B2, “Synthetic flavonoids and pharmaceutical compositions and therapeutic methods of treatment of HIV infection and other pathologies” (Florida A&M University, priority 2006, dated 2012) come the findings set out here.

“And” between values parts separate entries of the source, which are not always exact repeats. Equal entries are not always repeated. Where two headings read alike, the source gives them in different places.

The term inhibition denotes the relative decrease from the control value, in per cent. One may read the % Inhibition as the percentage by which the read-out fell short of the control. Low readings indicate a weak effect, high ones a strong effect.

Holding throughout (type): cell-based
In experiment [1] the test system is PC-3 cells. The experiment can be described thus: Cytoxicity on PC-3 cells (drug inhibition, cell count). The note with it: same conditions as AZT. From the text: The purified and identified analogs were subjected to in vitro biological testing.
The subject of experiment [2] is MCF-7 cells. Description: Cytoxicity on MCF-7 cells (drug inhibition, cell count). Conditions: for inhibition at 1 µg/mL / inhibition at 5 µg/mL / inhibition at 10 µg/mL / inhibition at 50 µg/mL: Homo sapiens, MCF7, MCF-7 cells; for inhibition at 1 µg/mL / inhibition at 5 µg/mL / inhibition at 10 µg/mL / inhibition at 50 µg/mL / % Inhibition: vs 2% DMSO; for Cells (×10^4): single replicate count. The source says:
(§1) The purified and identified analogs were subjected to in vitro biological testing. […] These three congeners were further evaluated in H9 and PC3 cells. AZT was employed as a positive control in all of these experiments.

Experiment [3] has as its system H-9 cells. Description: Cytoxicity on H-9 cells (drug inhibition, cell count). Conditions: same conditions as AZT.
Source text: as §1

In the case of `COc1cc(C=CC(=O)c2cc(C)cc([N+](=O)[O-])c2O)cc(OC)c1OC` [CHNM 3M], the “inhibitory activity compared to AZT” value in experiment [1] was “much superior inhibitory activities”; in experiment [2] (MCF-7 cells, same conditions as AZT), “much superior inhibitory activities”; in experiment [3], “much superior inhibitory activities”. For the same compound, the inhibition at 1 µg/mL was found to be 12.6% in experiment [2] (drug 1 μg/ml, mean of replicates, read-out: % Inhibition Mean) and 13.1% in experiment [2] (drug 1 μg/ml, single replicate, read-out: % Inhibition). The inhibition at 5 µg/mL in experiment [2] (drug 5 μg/ml, mean of replicates, read-out: % Inhibition Mean) was determined as 51.4%; in experiment [2] (drug 5 μg/ml, single replicate, read-out: % Inhibition) it was 49.4%. The inhibition at 10 µg/mL in experiment [2] (drug 10 μg/ml, mean of replicates, read-out: % Inhibition Mean) stood at 90.3%; in experiment [2] (drug 10 μg/ml, single replicate, read-out: % Inhibition), 90.2%. In addition, the inhibition at 50 µg/mL was determined as 96.6% in experiment [2] (drug 50 μg/ml, mean of replicates, read-out: % Inhibition Mean) and 96.6% in experiment [2] (drug 50 μg/ml, single replicate, read-out: % Inhibition). Further, the “response to MCF-7 cells in the different drug concentrations” value in experiment [2] (MCF-7 cells) is given as “good activities”. Further, the “Cells (×10^4) Mean” value in experiment [2] (MCF-7 cells, drug 1 μg/ml, mean of replicates) is listed as 44.50 ×10^4; in experiment [2] (MCF-7 cells, drug 5 μg/ml, mean of replicates), 24.75 ×10^4; in experiment [2] (MCF-7 cells, drug 10 μg/ml, mean of replicates) it was 4.92 ×10^4; in experiment [2] (MCF-7 cells, drug 50 μg/ml, mean of replicates), 1.75 ×10^4. The “Cells (×10^4)” value in experiment [2] (MCF-7 cells, drug 1 μg/ml) was 44.3 ×10^4 (2×) and 45.0 ×10^4; in experiment [2] (MCF-7 cells, drug 5 μg/ml) it was 25.8 ×10^4 and 24.0 ×10^4 and 24.5 ×10^4; in experiment [2] (MCF-7 cells, drug 10 μg/ml) it was 5.0 ×10^4 (2×) and 4.8 ×10^4; in experiment [2] (MCF-7 cells, drug 50 μg/ml), 1.8 ×10^4 and 2.0 ×10^4 and 1.5 ×10^4. In addition, the “% Inhibition” value is 11.62% in experiment [2] (MCF-7 cells, drug 1 μg/ml, single replicate); 52.86% and 51.88% in experiment [2] (MCF-7 cells, drug 5 μg/ml, single replicate); 90.67% in experiment [2] (MCF-7 cells, drug 10 μg/ml, single replicate); 96.07% and 97.05% in experiment [2] (MCF-7 cells, drug 50 μg/ml, single replicate).
